Measured values reported in publication PMC13252604, “First Generation Proteolysis Targeting Chimeras (PROTACs) for the Treatment of Progeria” (Advanced Science, 2026).

Tests used:
[1] = In vivo pharmacokinetic analysis; details: mouse, i.p. 25 mg/kg
Protocol: FIGURE 8 (A) In vivo pharmacokinetic (PK) analysis of compound 2 (mean±sem, n = 2 per time point). (B) Body weight throughout the 7‐week treatment. Mice of the indicated genotypes (mean±sem, n = 2) were treated with compound 2 or vehicle, starting at 6 weeks of age. (C) Progerin and H3K9Me3 levels in lung and liver, respectively, of mice treated for 7 weeks. Representative cropped immunoblots are shown. MW, molecular weight (in kDa) markers. […] TEXT PRINTED IN THE PICTURE: (A) no label printed: VD (L·Kg^-1): 11± 5 (Dose (D) (mg·Kg^-1): 25); Ke (h^-1): 0.9± 0.1 (Dose (D) (mg·Kg^-1): 25); t1/2 (h): […] (Dose (D) (mg·Kg^-1): 25); AUC (mg·h·L^-1): 3±1 (Dose (D) (mg·Kg^-1): 25); CL (L·Kg^-1·h^-1): 10±5 (Dose (D) (mg·Kg^-1): 25) DOUBTS OF THE COPYIST ABOUT THIS PICTURE: Panel A: the picture prints no substance label beside the pharmacokinetic table, so the label is left empty. "Cpd 2" is printed only in panel B. […]
All scientific procedures with animals were conformed to EU Directive 2010/63 EU and Recommendation 2007/526/EC, enforced in Spanish law under Real Decreto 53/2013.
Animal protocols were approved by the Committee of Animal Experimentation of Universidad Complutense de Madrid and the Animal Protection Area of the Comunidad Autónoma de Madrid (PROEX 114.4/24). Animal studies were carried out in LmnaG609G/G609G knock-in mice ubiquitously expressing progerin[19] and control Lmna+/+ littermates, obtained by breeding LmnaG609G/+ mice kindly donated by Prof. V. Andrés (CNIC, Spain). Mice were maintained in the animal facility of the Universidad Complutense de Madrid under specific pathogen free conditions.
For pharmacokinetic studies, compound 2 was administered intraperitoneally and blood was collected at the selected time points post-dose (n=2-3 per time point) by cardiac puncture. Blood was allowed to clot at room temperature for 30 min and centrifuged at 4 °C for 10 min at 10000g. The supernatant was transferred to a clean polypropylene tube and stored at -80 °C until analysis. For analysis, a volume of cold acetonitrile was added to the serum. The sample was incubated in an ice bath for 10 min and centrifuged at 4 °C for 10 min at 18000g. The resulting organic layer was filtered through a polytetrafluoroethylene filter (0.2 µm, 13 mm diameter, Agilent Technologies) and 30 µL of the sample analyzed by liquid chromatography coupled to mass spectrometry multiple reaction monitoring at the UCM’s Mass Spectrometry CAI. Separation was performed using a Phenomenex Gemini 5 µm C18 110Å 150x2 mm column (run time 9 min; flow 0.7 mL/min; gradient: 0 min 5% B; 4-7 min 100% B; 7.5 min 5% B; Phase A: water with formic acid 0.1%; Phase B: acetonitrile). […]
UHPLC with an oven temperature of 31.5 °C. The mass spectrometer ion optics were set in the multiple reaction monitoring mode and the transition selected for quantification […]
For in vivo treatment, compound 2 was administrated at a concentration of 25 mg/kg diluted in sterile corn oil (Sigma-Aldrich) intraperitoneally three times per week starting at the age of 6 weeks. The same quantity of corn oil was injected to control […]
After 7 weeks of treatment, mice were euthanized by CO2 inhalation. […] For immunoblot analysis, a portion of the corresponding tissue was homogenized, and the protein concentration was determined. Samples containing equivalent amounts of total protein were then subjected to polyacrylamide gel electrophoresis and analyzed as […]

[2] = Stability in cell culture; assay type: in vitro ADME
Text: TABLE 1 Pharmacokinetic parameters of PROTAC 2. | column: Stability (hours) ^b / Cell culture

CC1(C)Oc2cc3oc(=O)ccc3cc2C[C@@H]1OC(=O)CCCCCNc1cccc2c1C(=O)N(C1CCC(=O)NC1=O)C2=O (stereo partly drawn) [compound 2]
concentration at 1 h ([1]; ip, serum, 1 h, read-out: levels of the compound 1 h after administration): ~1500 ng/mL | signs of toxicity [1]: no evident signs of toxicity | half-life ([1]; serum, ip, 25 mg/kg, read-out: t1/2 (half‐life) (converted)): ~2 h | AUC ([1]; serum, ip): 3000 ± 1000 ng·h/mL | k el ([1]; serum, ip, read-out: Ke (converted)): 0.00025 s⁻¹ | Stability (hours) Cell culture [2]: >24 h
